Test results: patent US9150845B2, “Lyase enzymes, nucleic acids encoding them and methods for making and using them” (BASF ENZYMES LLC, priority 2005, dated 2015)

Experiments:
DH5α host = assay: Ammonia selection (growth with amino acid substrate, host + vector); assay type: cell-based; conditions: substrate tested
From the text: (§1) An exemplary activity-based discovery protocol comprises use of an ammonia selection using α-methylPhe to screen environmental libraries. […] A phenylalanine selection screen was also implemented to screen libraries, e.g., environmental libraries—which yielded, inter alia, chorismate mutases (CM), which complement a PheA mutation in the auxotroph screening host. An adamantyl phosphonate, an inhibitor of CM activity, also was used to determine whether can minimize background CM activity in this selection/screening protocol.

chorismate mutases (CM) = assay: Phenylalanine selection screen: suppression of background chorismate mutase activity; assay type: cell-based; conditions: PheA auxotroph screening host
From the text: as §1

[1] = Activity assignment of exemplary polypeptides (Table 1, assays of Examples 1, 2 and 3); assay type: biochemical; conditions: Table 1 (FIG. 8)
From the text: Table 1, presented as FIG. 8, details an exemplary activity determined for each exemplary polypeptide of the invention (and, also notes one exemplary nucleic acid of the invention that encodes the exemplary polypeptide; as determined by the assays described in Examples 1, 2 and 3, below. Table 1 also sets forth the source organism from which the polynucleotide was isolated (where “unknown” means that the source was an environmental sample), the GenBank accession number of the top BLAST hit, the organism from which the top BLAST hit was isolated, the percent sequence identity between the polypeptide of the invention and the top BLAST hit, the activity assigned to the top BLAST hit, and notes for that particular polynucleotide/polypeptide entry. […]
HAL enzyme activity can be determined as described in Baedeker & Schulz (Eur. J. Biochem 2002, 269, 1790-1797), wherein enzyme activity was determined as the rate of urocanate formation, measured spectrophotometrically at 277 nm. […] The reaction was started by adding 200 μL of 0.5 M histidine solution and then monitored for approximately 5 minutes.
In one aspect, PAL enzyme activity can be determined as described in Rother & Retey (Eur. J. Biochem, 2002, 269, 3065-3075), by following the formation of E-cinnamate spectrophotometrically at 30° C. at 290 nm. […] Kinetic constants were determined using a double reciprocal plot. […]

## N[C@@H](Cc1ccccc1Br)C(=O)O [2-BromoPhe, 2-Bromo-L-phenylalanine]
DH5α host
  background growth with negative control (host+empty vector): background growth

## N[C@@H](Cc1ccccc1Cl)C(=O)O [2-ChloroPhe, 2-Chloro-L-phenylalanine]
DH5α host
  background growth with negative control (host+empty vector): background growth

## N[C@@H](Cc1ccccc1)C(=O)O [Phe, phenylalanine]
DH5α host
  background growth with negative control (host+empty vector): background growth

## C[C@](N)(Cc1ccccc1)C(=O)O [α-methylPhe, α-methylphenylalanine]
DH5α host
  background growth with negative control (host+empty vector): no background growth

## adamantyl phosphonate
Chorismate mutases (CM)
  inhibition of background CM activity in selection/screening protocol: lack of potency

B1: SEQ ID NO:236: polypeptide encoded by SEQ ID NO:235, initially isolated from Pseudomonas fluorescens PfO-1 (protein)
chain: MITIRGEGLTIAQIAAVARGAPVRMTDDEAVLARVRASRQRIVEALESGQQIYGVTTLYGGMADRVVPADRLEALQRVSLWHHKVGAGPRLPVPDVRAAMLLRANSLLKGASGVRVELVERYVAFLNAGATPHVYQRGSIGASGDLSPLAYIGAAVIGLDRAWLVDLGEETLDCLTVLRRLGLEPMILQPKEGLALCNGTAASTGVAANCIERAFALTALALGTHALYFQALDATTQSFEPFVHALKPHPGQVWTAREMAALLDGSGLVRSEAAGDRAHRRGGLIQDRYSLRCMPQFVGPIVDGLAEAARQIEIEANSANDNPLIDPETGEVFHTGNFLAEYTAVAMDRLRYHLGMLAKHLDTQIALLVAPEFSRGLSPSLAGNLEPGLNVGLKSLQISCNSLMPLLTFYGQSMADRFPTHAEQFNQNINSQAMNGANLARDSVEVLAHFMANALVFAVQAVELRAWLVAGTYDASEVLSPATRPLYAAARAAAAGPPGPHRPLVWNDTDGFLEDKVRGVMSSILEGGAVPEAVAPVRERLRAHRG
modifications: Obtained from environmental sample; DOMAIN (1)...(492): Phenylalanine and histidine ammonia-lyase; SITE (140)...(156): Phenylalanine and histidine ammonia-lyases signature. Prosite id = PS00488; SITE (201)...(204): N-glycosylation site. Prosite id = PS00001; SITE (514)...(517): N-glycosylat
[1]
  exemplary activity determined for the polypeptide: esterase activity

B2: SEQ ID NO:2: polypeptide encoded by SEQ ID NO:1, initially isolated from Tannerella forsythensis ATCC 43037 (protein)
chain: MEKTVTYQSEKGFSIHDVERLLLGQSHLKLSAESLQKVERCFIFLREFSTDKVIYGINTGFGPMAQYRVDDNCLKQLQYNIIRSHSTGAGEPLDPIYVKAAMIARLSTFLQGYSGIHTDLVRLLTEFINRDICPFIPEHGSVGASGDLVQLAHIALTLIGEGEVFYEGKRRPTAEVMQKEKLSPLDIYIREGLSATNGTSVMTGIGLVNLIYAKRLLHWSIAASVMMNEIASSYDDLMSPGLNATKRHEGQQEIARAMCRWAAGSKAMRKREIEMFQRHTEKVFGHKVQAYYSLRCVPQILGPIWDTMAYAEKVLVDELNSACDNPIVDPEAQYVYHGGNFHGDYISFEMDKLKIAVTKMTMLAERQLNYLFHNRINDDILPPFVNLGVLGLNYGLQAAQFTATSTTAECQTLSNPMYIHSIPNNNDNQDIVSMGANAALMAKTVIENGYQVMAIHFMALVQAVDYLKLQPRMAEKTRAVYDEIRAFFPVFTDDTPKYREIETMITYLKSSGKRI
modifications: Tannerella forsythensis ATCC 43037; DOMAIN (4)...(493): Phenylalanine and histidine ammonia-lyase
[1]
  exemplary activity determined for the polypeptide: TAL and PAL activity
